Earlier results, collected in patent US20030170327A1, “Vitamin and zinc monomethionine compositions” (priority 2002, published 2003).

Conditions: versus other forms of zinc found in nutritional supplements

absorption in comparison to other forms of zinc: better absorbed | retention in comparison to other forms of zinc: retained longer
Structure (SMILES): CSCC[C@H](N)C(=O)O.[Zn] [zinc monomethionine]
